{"source": "patent US9206137B2", "about": "“N-Aryl pyrazole(thio)carboxamides” (BAYER INTELLECTUAL PROPERTY GMBH, priority 2010, dated 2015)", "test_system": "Sphaerotheca fuliginea", "assay": "Sphaerotheca test (cucumber)/preventive", "format": "in vivo", "settings": "preventive", "excerpt": "One day after this treatment, the plants are inoculated with an aqueous spore suspension of Sphaerotheca fuliginea."}
{"smiles": "Cc1ccccc1-c1ccccc1NC(=O)c1c(C(F)F)nn(C)c1F", "note": "[102 from WO-2007/006806, 3-(difluoromethyl)-5-fluoro-1-methyl-N-(2′-methylbiphenyl-2-yl)-1H-pyrazole-4-carboxamide]", "values": [{"measurement": "efficacy", "setting": "Table A, dose 500 ppm", "result": 20, "unit": "%"}, {"measurement": "efficacy", "setting": "500 ppm of active ingredient, evaluated 7 days after inoculation", "result": "less than 20%"}]}
